{"source": "patent US20020193850A1", "about": "“Use of photodynamic therapy to treat prostatic tissue” (priority 1993, published 2002)", "key": {"[1]": {"conditions": "1.0 mg/kg, 24 hours after injection", "description": "(§1) Animals: Adult mongrel dogs were used in all experiments. Dogs were housed 1/cage and given water and canine chow (Purina Chow, Ralston Purina Corp.) ad libitum.\n(§2) Photosensitive composition: The photosensitizer, tin ethyl etiopurpurin was used. The photosensitizer was administered in anesthetized (xylazine/ketamine) dogs as an emulsion via antecubital vein 24 hours prior to light treatment.\nPhotosensitizer extraction: The animals were injected with 1.0 mg/kg of the photosensitizer. Twenty-four hours later, prostate and other tissues were removed from euthanized animals. Tissue samples were removed from the periurethral prostate and the more peripheral regions. Additionally, the mucosa of the urethra was dissected and its photosensitizer content determined. Bladder mucosa and muscularis were also removed. Tissue was weighed and homogenized with a biohomogenizer (Biospec Products, Inc., Bartleville, Okla.) in 3% acetic acid. After homogenization, a 3:1 ethyl acetate:glacial acetic acid mixture was added and mixed vigorously. The sample was then frozen at −20° C. for at least two hours after which it was thawed and saturated sodium acetate added. The ethyl acetate layer, containing the photosensitizer, was removed and its concentration determined using absorbance spectrophotometry (Response II spectrophotomer, Gilford, Oberlin, Ohio)."}, "[2]": {"system": "prostatic tissue", "assay": "Transurethral photodynamic therapy of the prostate", "description": "as §1, §2\nLight source and delivery: An LTI 660 dye laser (PDT Systems, Santa Barbara, Calif.) pumped by a KTP/YAG laser (Laserscope, San Jose, Calif.), was used as a light source. Laser light was delivered to the prostate via a 400 micron optical fiber fitted with a 2.0 cm flexible cylindrical diffuser tip (PDT Systems, Inc., Santa Barbara, Calif.).\nTissue Preparation: On removal, the prostates were photographed and then fixed in a 10% buffered formalin solution. After fixation, tissue was sectioned at 5u intervals and stained with H & E. Sections of the urinary bladder were removed and prepared in a similar manner.\nProstate treatment: The animals were injected with 1.0 mg/kg of the photosensitizer. Twenty-four hours after photosensitizer administration the animals were anesthetized with intravenous sodium barbiturate. The animals were intubated and maintained on a respirator during light treatment. They were treated in the dorsolithotomy position. The 2 cm. diffusing tip of the laser fiber was localized in the prostatic urethra under transrectal ultrasound guidance. A Bruel and Kreuger 7.0 megahertz ultrasound scanner with a transrectal probe was used. The laser fiber was placed within a transparent 10F Stamey catheter (TFX Medical, Duluth, Ga.) which was used as a laser fiber carrier. The tip of the catheter was positioned immediately outside the bladder neck. Once positioned, the prostate was treated with 300 (260 mW/cm^2) joules of laser light. The animals were then recovered and returned to their cages, Indwelling catheters were not used after treatment."}, "[3]": {"system": "R3327AT prostate tumor", "assay": "R3327AT prostate tumor model, photodynamic therapy, tumor growth delay (Example 2)", "format": "in vivo, male Copenhagen rats", "conditions": "drug dose 1.5 mg/kg", "description": "The R3327AT prostate tumor model was used in male Copenhagen rats which were injected with 1.5 mg/kg body wt. of SnET2 (tin ethyl etiopurpurin Emulsion, (0.94 mg/ml) PDT Pharmaceuticals). Each rat had one flank tumor (R3327AT). After two weeks, the tumors ranged from 1.0 to 1.6 cm in length. Twenty four hours after TEP injection, the tumor area received photodynamic therapy with a light source of a KTP pumped 660 dye laser (PDT Systems). The KTP/660 dye laser was tuned to 660 nm; power density: 200 mw/cm^2; light dose: 0, 200, 300 and 400 Joules. Tumor temperatures were monitored using a 23 gge. hypodermic probe (YSI) placed percutaneously beneath the treated tumor. If needed, the tumors were cooled by a jet of cool air. Tumors were measured and recorded three times per week.\nThe linear regression of tumor growth (represented as tumor volume) for each rat was plotted. The number of days it took the treated tumors to reach their initial tumor volume at the time of treatment was determined by the intercept with a horizontal line drawn at the mean initial tumor volume for all groups. The mean number of days for each light/drug dose group to reach its initial tumor size is recorded in Table 3 below."}, "[4]": {"system": "R3327AT prostate tumor", "assay": "R3327AT prostate tumor model, photodynamic therapy with 659 YAG or 660 Dye laser (Example 3)", "format": "in vivo, male Copenhagen rats", "conditions": "1.5 mg/kg", "description": "The R3327AT prostate tumor model was used in male Copenhagen rats which were injected with 1.5 mg/kg body wt. of SnET2 (Tin Ethyl Etiopurpurin Emulsion, PDT Pharmaceuticals). Each rat had one flank tumor (R3327AT). After two weeks, the tumors ranged from 1.0 to 1.6 cm in length. Twenty four hours (+/−2 hrs.) after SnET2 injection the tumor area received photodynamic therapy using either a 659 YAG or 660 Dye laser fiber optically coupled to a 3-way fiber splitter.\nTumor temperatures were monitored using a 23 gge. hypodermic probe (YSI) placed percutaneously beneath the treated tumor. If needed, the tumors were cooled by a jet of cool air. Tumor diameters were measured and recorded three times per week.\nTumor growth was monitored by calculating volumes from the recorded measurements of tumor width, height and length. The rate of growth is presented as the number of days required for an individual tumor to reach 2, 5 or 10 times initial volume. This method of analysis of tumor growth accounts for variations due to differing initial tumor volume (Gibson and Hilf, Cancer Research, 1990). […] Only at the 200 Joule fluence level was there any significant difference between the YAG and Dye lasers in producing tumor growth delay."}, "[5]": {"conditions": "Mean +/- SD, listed as Photosensitizer, 1 mg/kg"}}, "note": "Read-outs that look alike come from different tables or passages of the source. Marks after values point to notes of the source that are not given here."}
{"smiles": "CCOC(=O)C1=Cc2c3nc(cc4nc(cc5[n-]c(cc6[n-]c2c(C)c6CC)c(C)c5CC)C(C)=C4CC)[C@@H](C)[C@]13CC.[Cl-].[Cl-].[Sn]", "note": "(racemic) [SnET2, tin ethyl etiopurpurin]", "values": [{"measurement": "Tissue levels of photosensitizer compared with plasma levels", "setting": "[1]", "value": "significantly greater than plasma levels"}, {"measurement": "Photosensitizer concentration, Bladder", "setting": "[1]; Dog 1", "value": 0.2, "unit": "µg/g"}, {"measurement": "Photosensitizer concentration, Prostate", "setting": "[1]; Dog 1", "value": "2.1 * ug/g"}, {"measurement": "Photosensitizer concentration, Urethra", "setting": "[1]; Dog 1", "value": 0.5, "unit": "µg/g"}, {"measurement": "Photosensitizer concentration, Bladder", "setting": "[1]; Dog 2", "value": 0.2, "unit": "µg/g"}, {"measurement": "Photosensitizer concentration, Kidney", "setting": "[1]; Dog 2", "value": 2.5, "unit": "µg/g"}, {"measurement": "Photosensitizer concentration, Liver", "setting": "[1]; Dog 2", "value": 6.7, "unit": "µg/g"}, {"measurement": "Photosensitizer concentration, Muscle", "setting": "[1]; Dog 2", "value": 0.3, "unit": "µg/g"}, {"measurement": "Photosensitizer concentration, Plasma (24-hr)", "setting": "[1]; Dog 2", "value": "0.1 * * ug/ml"}, {"measurement": "Photosensitizer concentration, Prostate", "setting": "[1]; Dog 2", "value": 0.8, "unit": "µg/g"}, {"measurement": "Photosensitizer concentration, Spleen", "setting": "[1]; Dog 2", "value": 0.8, "unit": "µg/g"}, {"measurement": "Photosensitizer concentration, Urethra", "setting": "[1]; Dog 2", "value": 0.3, "unit": "µg/g"}, {"measurement": "Photosensitizer concentration, Bladder", "setting": "[1]; Dog 3", "value": 0.2, "unit": "µg/g"}, {"measurement": "Photosensitizer concentration, Kidney", "setting": "[1]; Dog 3", "value": 2.9, "unit": "µg/g"}, {"measurement": "Photosensitizer concentration, Liver", "setting": "[1]; Dog 3", "value": 6.1, "unit": "µg/g"}, {"measurement": "Photosensitizer concentration, Muscle", "setting": "[1]; Dog 3", "value": 0.2, "unit": "µg/g"}, {"measurement": "Photosensitizer concentration, Plasma (24-hr)", "setting": "[1]; Dog 3", "value": 0.1, "unit": "µg/mL"}, {"measurement": "Photosensitizer concentration, Prostate", "setting": "[1]; Dog 3", "value": 0.9, "unit": "µg/g"}, {"measurement": "Photosensitizer concentration, Spleen", "setting": "[1]; Dog 3", "value": 0.8, "unit": "µg/g"}, {"measurement": "Photosensitizer concentration, Urethra", "setting": "[1]; Dog 3", "value": 0.2, "unit": "µg/g"}, {"measurement": "Photosensitizer concentration, Kidney", "setting": "[1]; Mean +/- SD", "value": "2.7 ± 0.2", "unit": "µg/g"}, {"measurement": "Photosensitizer concentration, Liver", "setting": "[1]; Mean +/- SD", "value": "6.7 ± 0.2", "unit": "µg/g"}, {"measurement": "Photosensitizer concentration, Muscle", "setting": "[1]; Mean +/- SD", "value": "0.3 ± 0.1", "unit": "µg/g"}, {"measurement": "Photosensitizer concentration, Plasma (24-hr)", "setting": "[1]; Mean +/- SD", "value": "0.1 ± 0", "unit": "µg/mL"}, {"measurement": "Photosensitizer concentration, Spleen", "setting": "[1]; Mean +/- SD", "value": "0.8 ± 0", "unit": "µg/g"}, {"measurement": "Photosensitizer concentration, Bladder", "setting": "[1]; [5]", "value": "0.2 ± 0", "unit": "µg/g"}, {"measurement": "Photosensitizer concentration, Prostate", "setting": "[1]; [5]", "value": "1.3 ± 0.6", "unit": "µg/g"}, {"measurement": "Photosensitizer concentration, Urethra", "setting": "[1]; [5]", "value": "0.3 ± 0.1", "unit": "µg/g"}, {"measurement": "Prostate effects of photosensitizer and light", "setting": "[2]; 1.0 mg/kg, light 24 hours later, 300 joules (260 mW/cm^2), transurethral", "value": "showed evidence of a photodynamic effect"}, {"measurement": "Urethral mucosa", "setting": "[2]; 3 weeks following treatment, 1.0 mg/kg, 300 joules", "value": "The urethral mucosa had regenerated"}, {"measurement": "Urethral epithelium", "setting": "[2]; 48 hours following photodynamic therapy, 1.0 mg/kg, 300 joules", "value": "loss of the urethral epithelium"}, {"measurement": "Animal recovery: voiding", "setting": "[2]; after photodynamic therapy, no indwelling catheter, 1.0 mg/kg, 300 joules", "value": "All animals were able to void spontaneously"}, {"measurement": "Animal recovery: hematuria", "setting": "[2]; after photodynamic therapy, 1.0 mg/kg, 300 joules", "value": "Two of the animals developed gross hematuria"}, {"measurement": "Changes in the bladder", "setting": "[2]; after photodynamic therapy, believed due to movement or inaccurate placement of the light guide", "value": "In two of the animals there were extensive changes in the bladder"}, {"measurement": "Histology of prostate", "setting": "[2]; prostate removed 3 weeks following treatment, 1.0 mg/kg, 300 joules", "value": "glandular atrophy and replacement with fibrous tissue"}, {"measurement": "Histologic examination of prostate around the urethra", "setting": "[2]; prostates removed 48 hours following photodynamic therapy, 1.0 mg/kg, 300 joules", "value": "extensive hemmorhagic necrosis"}, {"measurement": "# of Days of Growth Delay", "setting": "[3]; Group II: light dose 0 Joules", "value": 0, "unit": "days"}, {"measurement": "# of Days of Growth Delay", "setting": "[3]; Group III: light dose 200 Joules, 660 nm, 200 mw/cm^2", "value": "6.2 ± 1.2", "unit": "days"}, {"measurement": "# of Days of Growth Delay", "setting": "[3]; Group IV: light dose 300 Joules, 660 nm, 200 mw/cm^2", "value": "5.8 ± 0.8", "unit": "days"}, {"measurement": "# of Days of Growth Delay", "setting": "[3]; Group V: light dose 400 Joules, 660 nm, 200 mw/cm^2", "value": "11.4 ± 3.7", "unit": "days"}, {"measurement": "Difference between 660 Dye and 659 YAG lasers as light source for photodynamic therapy", "setting": "[4]; 200 mw/cm^2, significant difference only at the 200 Joule fluence level", "value": "no consistent significant difference"}, {"measurement": "Tumor growth delay from initial to 2 times initial volume as compared to controls", "setting": "[4]; 659 YAG and 660 Dye lasers, 200-400 Joules, especially at the 400 Joule level", "value": "effective in delaying tumor growth"}]}
